Measurements: ChEMBL document CHEMBL1949630, “Discovery of benzodihydroisofurans as novel, potent, bioavailable and brain-penetrant prolylcarboxypeptidase inhibitors” (Bioorg Med Chem Lett, 2012)

Columns and labels:
[1] = Volume of distribution at steady state in C57BL/6 mouse at 0.5 mg/kg, iv and 1 mg/kg, po by LC/MS/MS analysis; assay type: ADME, organism-based; conditions: in vivo, read-out: Vdss
[2] = target: T1, Lysosomal Pro-X carboxypeptidase (Mus musculus, UniProt Q7TMR0); experiment: Inhibition of mouse PrCP
T1 sequence (Q7TMR0 whole entry): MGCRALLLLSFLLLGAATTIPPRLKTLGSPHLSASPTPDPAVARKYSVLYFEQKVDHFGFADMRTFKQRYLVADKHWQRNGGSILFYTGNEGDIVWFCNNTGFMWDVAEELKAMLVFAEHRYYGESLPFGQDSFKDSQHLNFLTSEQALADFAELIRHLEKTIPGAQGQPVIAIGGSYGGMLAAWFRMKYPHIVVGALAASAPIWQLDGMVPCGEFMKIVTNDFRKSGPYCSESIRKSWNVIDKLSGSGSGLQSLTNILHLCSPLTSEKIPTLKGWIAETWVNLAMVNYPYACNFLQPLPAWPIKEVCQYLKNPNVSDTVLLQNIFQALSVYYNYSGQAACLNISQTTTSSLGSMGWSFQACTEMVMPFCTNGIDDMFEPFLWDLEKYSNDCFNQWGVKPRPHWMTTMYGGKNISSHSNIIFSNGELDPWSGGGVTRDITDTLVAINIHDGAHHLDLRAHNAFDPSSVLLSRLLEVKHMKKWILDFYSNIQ

[3] = system: Mus musculus; experiment: Dose normalized AUC in C57BL/6 mouse at 1 mg/kg by LC/MS/MS analysis; assay type: ADME, organism-based; parameters: dose 1 mg/kg; conditions: in vivo
[4] = Half life in C57BL/6 mouse at 0.5 mg/kg, iv and 1 mg/kg, po by LC/MS/MS analysis; assay type: ADME, organism-based; conditions: in vivo
[5] = Oral bioavailability in C57BL/6 mouse at 1 mg/kg by LC/MS/MS analysis; assay type: ADME, organism-based; conditions: in vivo
[6] = Clearance in C57BL/6 mouse at 0.5 mg/kg, iv and 1 mg/kg, po by LC/MS/MS analysis; assay type: ADME, organism-based; conditions: in vivo
[7] = target: T1, Lysosomal Pro-X carboxypeptidase; experiment: Inhibition of PrCP in mouse plasma assessed as angiotensin 3 cleavage by whole serum shift assay

| SMILES | Vd [1] | IC50 [2] | AUC/dose [3] | half-life [4] | bioavailability [5] | clearance [6] | IC50 [7] |
| --- | --- | --- | --- | --- | --- | --- | --- |
| Fc1ccc(CN2CCC3(CC2)OC(c2cc(Cl)cc(Cl)c2)c2ccccc23)nc1 (stereo unspecified) | 16 L/kg | 2.5 nM | 1.36 µM·kg·h/mg | 420 min | 22% | 28 mL/min/kg |  |
| FC(F)(F)Oc1ccc(CN2CCC3(CC2)OC(c2cc(Cl)cc(Cl)c2)c2cccnc23)cc1 (stereo unspecified) | 8.2 L/kg | 1.4 nM | 0.26 µM·kg·h/mg | 240 min | 22% | 28 mL/min/kg |  |
| CC(c1ccc(F)cn1)N1CCC2(CC1)OC(c1cc(Cl)cc(Cl)c1)c1cccnc12 (stereo unspecified) | 19 L/kg | 1.1 nM | 0.028 µM·kg·h/mg | 240 min | 5.4% | 69 mL/min/kg | 14 nM |
| Clc1cc(Cl)cc(C2OC3(CCN(Cc4cc5ccccc5o4)CC3)c3ccccc32)c1 (racemic) |  | 2.5 nM |  |  |  |  | > 1000 nM |
| FC(F)(F)c1ccc(CN2CCC3(CC2)OC(c2cc(Cl)cc(Cl)c2)c2ccccc23)nc1 (racemic) | 11 L/kg | 0.71 nM | 0.11 µM·kg·h/mg | 246 min | 16% | 51 mL/min/kg | 144 nM |
| Clc1cc(Cl)cc(C2OC3(CCN(Cc4ccc(N5CCCC5)cn4)CC3)c3ccccc32)c1 (racemic) | 4.7 L/kg | 17 nM | 1.22 µM·kg·h/mg | 510 min | 23% | 7.6 mL/min/kg |  |
| FC(F)(F)Oc1ccc(CN2CCC3(CC2)OC(c2cc(Cl)cc(Cl)c2)c2ccncc23)cc1 (racemic) | 15 L/kg | 1.3 nM | 0.28 µM·kg·h/mg | 366 min | 29% | 35 mL/min/kg | 380 nM |
| FC(F)(F)Oc1ccc(CN2CCC3(CC2)OC(c2cc(Cl)cc(Cl)c2)c2cnccc23)cc1 (racemic) |  | 5.2 nM |  |  |  |  | 427 nM |
| FC(F)(F)Oc1ccc(CN2CCC3(CC2)OC(c2ccc(Cl)cn2)c2ccccc23)cc1 (racemic) | 14 L/kg | 25 nM | 0.46 µM·kg·h/mg | 390 min | 35% | 30 mL/min/kg |  |
| FC(F)(F)Oc1ccc(CN2CCC3(CC2)OC(c2ccccn2)c2ccccc23)cc1 (racemic) | 26 L/kg | 20 nM | 0.14 µM·kg·h/mg | 300 min | 25% | 70 mL/min/kg |  |
| CC(c1ccc(F)cn1)N1CCC2(CC1)OC(c1cc(Cl)ccn1)c1ccccc12 (racemic) | 13 L/kg |  | 0.032 µM·kg·h/mg | 102 min | 7.8% | 96 mL/min/kg |  |
| CC(c1ccc(F)cn1)N1CCC2(CC1)OC(c1cc(Cl)ccn1)c1cccnc12 (racemic) | 17 L/kg | 10.6 nM | 0.008 µM·kg·h/mg | 126 min | 2.6% | 127 mL/min/kg | 19 nM |
| CC(c1ccc(F)cn1)N1CCC2(CC1)OC(c1cc(Cl)cc(Cl)c1)c1ccccc12 (racemic) | 14 L/kg | 0.31 nM | 0.27 µM·kg·h/mg | 354 min | 22% | 31 mL/min/kg | 90 nM |
| OCC(c1ccccc1)N1CCC2(CC1)OC(c1cc(Cl)cc(Cl)c1)c1cccnc12 (racemic) | 20 L/kg | 110 nM | 0.05 µM·kg·h/mg | 138 min | 17% | 126 mL/min/kg |  |
| CC(C)(c1ccc(OC(F)(F)F)cc1)N1CCC2(CC1)OC(c1cc(Cl)ccn1)c1cccnc12 (racemic) |  | 0.39 nM | 0.41 µM·kg·h/mg | > 480 min | 41% |  | 351 nM |
| CC(C)(O)C(c1ccccc1)N1CCC2(CC1)OC(c1cc(Cl)cc(Cl)c1)c1cccnc12 (racemic) | 7.3 L/kg | 5.2 nM | 0.11 µM·kg·h/mg | 204 min | 16% | 38 mL/min/kg |  |
